Experimental data published in PMC10828444, “Selective inhibition of overactive warmth-sensitive Ca^2+-permeable TRPV3 channels by antispasmodic agent flopropione for alleviation of skin inflammation” (The Journal of Biological Chemistry, 2023).
Numbering of substitutions follows the chain as printed.

Key:
Assay type in all cases: cell-based
[1] = target: T1, hTRPV3 single channel (Homo sapiens, UniProt Q8NET8); assay: Inside-out single-channel recordings of TRPV3 in HEK293 cells; conditions: 50 μM flopropione in presence of 30 μM 2-APB, −60 mV
T1 construct: expressed in transfected cells; host or cells: HEK293
T1 sequence (Q8NET8 1-790): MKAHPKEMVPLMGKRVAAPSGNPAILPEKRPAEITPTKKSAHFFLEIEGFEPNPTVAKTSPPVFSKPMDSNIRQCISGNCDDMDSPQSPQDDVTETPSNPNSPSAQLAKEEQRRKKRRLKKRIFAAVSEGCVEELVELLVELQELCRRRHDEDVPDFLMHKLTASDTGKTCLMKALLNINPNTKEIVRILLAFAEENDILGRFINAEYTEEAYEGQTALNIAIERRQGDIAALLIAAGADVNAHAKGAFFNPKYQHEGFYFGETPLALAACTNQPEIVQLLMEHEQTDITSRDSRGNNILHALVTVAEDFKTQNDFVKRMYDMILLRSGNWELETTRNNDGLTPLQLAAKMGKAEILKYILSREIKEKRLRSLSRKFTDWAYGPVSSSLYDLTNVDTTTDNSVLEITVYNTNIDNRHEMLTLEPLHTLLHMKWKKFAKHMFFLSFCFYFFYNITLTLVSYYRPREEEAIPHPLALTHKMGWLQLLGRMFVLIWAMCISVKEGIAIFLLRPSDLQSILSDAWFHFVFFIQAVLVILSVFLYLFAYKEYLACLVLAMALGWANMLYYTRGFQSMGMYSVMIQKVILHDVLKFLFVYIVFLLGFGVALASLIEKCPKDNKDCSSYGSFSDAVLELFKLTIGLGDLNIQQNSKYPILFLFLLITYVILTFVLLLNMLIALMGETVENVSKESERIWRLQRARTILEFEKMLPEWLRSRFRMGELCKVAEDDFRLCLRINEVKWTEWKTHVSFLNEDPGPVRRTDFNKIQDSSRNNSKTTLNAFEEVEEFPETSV
Text: For single-channel recordings, borosilicate glass pipettes were pulled from borosilicate glass capillaries and fire-polished to the resistance between 6 and 10 MΩ using a DMZ universal electrode puller (Zeitz-Instruments, GmbH). For inside-out single-channel recordings, both pipette and external solutions contained (in mM): 130 NaCl, three HEPES, and 0.2 EDTA (pH = 7.4). Membrane potential was clamped at −60 mV and currents were digitized at 10 kHz and filtered at 2 kHz.

[2] = target: T2, hTRPV4 (Homo sapiens, UniProt Q9HBA0); assay: Whole-cell patch-clamp of TRPV4 currents activated by GSK1016790A in HEK293 cells; conditions: flopropione 100 μM, GSK1016790A 0.1 μM
T2 construct: expressed in transfected cells; host or cells: HEK293
T2 sequence (Q9HBA0 whole entry): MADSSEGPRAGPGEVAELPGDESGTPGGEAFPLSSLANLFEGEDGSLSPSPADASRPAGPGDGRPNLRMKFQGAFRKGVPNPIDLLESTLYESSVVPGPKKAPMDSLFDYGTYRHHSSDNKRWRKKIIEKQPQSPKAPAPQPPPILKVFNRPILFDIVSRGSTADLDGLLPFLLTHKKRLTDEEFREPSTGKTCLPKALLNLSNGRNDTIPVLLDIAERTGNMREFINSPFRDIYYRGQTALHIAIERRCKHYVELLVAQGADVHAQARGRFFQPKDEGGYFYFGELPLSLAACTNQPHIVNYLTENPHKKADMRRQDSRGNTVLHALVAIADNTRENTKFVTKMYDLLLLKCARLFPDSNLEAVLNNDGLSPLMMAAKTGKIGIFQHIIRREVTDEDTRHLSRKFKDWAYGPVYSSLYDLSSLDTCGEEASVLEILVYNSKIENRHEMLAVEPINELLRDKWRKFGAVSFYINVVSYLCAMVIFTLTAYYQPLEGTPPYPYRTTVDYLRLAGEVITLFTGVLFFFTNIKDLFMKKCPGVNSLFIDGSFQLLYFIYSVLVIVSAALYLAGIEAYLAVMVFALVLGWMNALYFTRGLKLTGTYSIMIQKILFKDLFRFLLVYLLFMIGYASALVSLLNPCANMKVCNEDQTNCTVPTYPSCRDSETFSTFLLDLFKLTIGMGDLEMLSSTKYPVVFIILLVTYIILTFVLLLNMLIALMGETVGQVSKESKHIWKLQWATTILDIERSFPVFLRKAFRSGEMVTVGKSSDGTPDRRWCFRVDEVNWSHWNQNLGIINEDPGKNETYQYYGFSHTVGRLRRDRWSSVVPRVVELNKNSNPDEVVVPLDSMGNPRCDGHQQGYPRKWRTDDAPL
Description: (§1) HEK293 cells were cultured in Dulbecco’s modified Eagle’s medium (DMEM, Gibco) containing 4.5 g/L D-glucose supplemented with 10% fetal bovine serum based at 37 °C with 5% CO2. For whole-cell patch-clamp recordings, cells were grown in glass coverslips for 24 h before transient transfections with 3000 ng cDNAs of hTRPV3 (gene accession number BC104866.1), hTRPV1 (accession number NM_080704.3), mTRPV2 (accession number NM_011706.2), hTRPV4 (accession number NM_021625.5), hTRPA1 (accession number NM_007332.3) and hTRPM8 (accession number NM_024080.5) into HEK293 cells grown in a 35-mm cell culture dish using Lipofectamine 2000 (Invitrogen). Cells were used 18 ∼ 24 h after transfection. All WT or mutant hTRPV3 plasmids were validated by DNA sequencing.
(§2) Whole-cell patch clamp recordings of wild-type and mutants were carried out at room temperature using the HEKA EPC10 amplifier powered by PatchMaster software (HEKA) or MultiClamp 700B amplifier driven by Clampex 11.0.3 software. The borosilicate glass pipettes were pulled and fire-polished to 3∼6 MΩ using a DMZ universal electrode puller (Zeitz-Instruments, GmbH). Pipette solution and bath solution both contained (in mM): 130 NaCl, three HEPES, and 0.2 EDTA (pH = 7.4). Cell membrane potential was held at 0 mV, currents were recorded at a voltage ramp from −100 to +100 mV for 500-ms and analyzed at ±80 mV.

[3] = target: T3, TRPV3-F666A mutant (Homo sapiens, UniProt Q8NET8, F666A); assay: Whole-cell and single-channel recordings of TRPV3-F666A mutant; conditions: 100 μM flopropione whole-cell (50 μM 2-APB); 50 μM single-channel (30 μM 2-APB)
T3 construct: expressed in transfected cells; host or cells: HEK293
T3 sequence (Q8NET8 1-790 F666A): T1 sequence (Q8NET8 1-790) with F666A
Description: as §1
as §2, with “mV. […]” for “mV.”

unitary single channel conductance [1]: 167.1 ± 9.0 pS
single-channel open probability ([1]; n = 4): 0.17 ± 0.06
effect on TRPV4 currents [2]: no effect
effect of F666A mutation on flopropione-mediated inhibition [3]: no effect
Structure (SMILES): CCC(=O)c1c(O)cc(O)cc1O [flopropione]
